Experimental data as given in PubChem BioAssay AID1963968 (Molecular Pharmacology Branch, DTP, NCI, 2024).

Tested on: 945468-187-T-J3-PDC spheroids with HUVEC/MSC, viability
Test: Anticancer human tumor 945468-187-T-J3-PDC patient-derived rectal carcinoma cell line growth inhibition [PI3K]
Settings: for IC50: curve of first compound; for viability, T/C: stronger effect = lower value
Outline: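 Combination activity was assessed by viability in multicellular tumor spheroids carrying HUVEC and MSC components. Agents were tested with PI3K inhibitors from a Cmax-based top dose (or 10 microM) downward in half-log increments.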
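Note: spheroids exposed to agents for 7 days before viability read.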
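Throughout, for viability, T/C: 100% = DMSO vehicle control viability.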

## CNC(=O)c1ccc(N2C(=S)N(c3ccc(C#N)c(C(F)(F)F)c3)C(=O)C2(C)C)cc1F + Cc1nc(NC(=O)N2CCCC2C(N)=O)sc1-c1ccnc(C(C)(C)C(F)(F)F)c1
Second compound 0.0316 µM
  IC50: > 10 µM
Second compound 0.1 µM
  IC50: > 10 µM
Second compound 0.316 µM
  IC50: > 10 µM
Second compound 1 µM
  IC50: > 10 µM
Second compound 3.16 µM
  IC50: > 10 µM
Second compound 10 µM
  IC50: > 10 µM
Second compound 0.0316 µM, first compound 0.0316 µM
  viability, T/C: 102%
Second compound 0.0316 µM, first compound 0.1 µM
  viability, T/C: 108%
Second compound 0.0316 µM, first compound 0.316 µM
  viability, T/C: 96.1%
Second compound 0.0316 µM, first compound 1 µM
  viability, T/C: 115%
Second compound 0.0316 µM, first compound 3.16 µM
  viability, T/C: 107%
Second compound 0.0316 µM, first compound 10 µM
  viability, T/C: 104%
Second compound 0.1 µM, first compound 0.0316 µM
  viability, T/C: 108%
Second compound 0.1 µM, first compound 0.1 µM
  viability, T/C: 106%
Second compound 0.1 µM, first compound 0.316 µM
  viability, T/C: 99.7%
Second compound 0.1 µM, first compound 1 µM
  viability, T/C: 105%
Second compound 0.1 µM, first compound 3.16 µM
  viability, T/C: 116%
Second compound 0.1 µM, first compound 10 µM
  viability, T/C: 94.8%
Second compound 0.316 µM, first compound 0.0316 µM
  viability, T/C: 125%
Second compound 0.316 µM, first compound 0.1 µM
  viability, T/C: 108%
Second compound 0.316 µM, first compound 0.316 µM
  viability, T/C: 97%
Second compound 0.316 µM, first compound 1 µM
  viability, T/C: 105%
Second compound 0.316 µM, first compound 3.16 µM
  viability, T/C: 116%
Second compound 0.316 µM, first compound 10 µM
  viability, T/C: 108%
Second compound 1 µM, first compound 0.0316 µM
  viability, T/C: 120%
Second compound 1 µM, first compound 0.1 µM
  viability, T/C: 115%
Second compound 1 µM, first compound 0.316 µM
  viability, T/C: 97.6%
Second compound 1 µM, first compound 1 µM
  viability, T/C: 118%
Second compound 1 µM, first compound 3.16 µM
  viability, T/C: 105%
Second compound 1 µM, first compound 10 µM
  viability, T/C: 108%
Second compound 3.16 µM, first compound 0.0316 µM
  viability, T/C: 123%
Second compound 3.16 µM, first compound 0.1 µM
  viability, T/C: 110%
Second compound 3.16 µM, first compound 0.316 µM
  viability, T/C: 101%
Second compound 3.16 µM, first compound 1 µM
  viability, T/C: 112%
Second compound 3.16 µM, first compound 3.16 µM
  viability, T/C: 108%
Second compound 3.16 µM, first compound 10 µM
  viability, T/C: 121%
Second compound 10 µM, first compound 0.0316 µM
  viability, T/C: 61.1%
Second compound 10 µM, first compound 0.1 µM
  viability, T/C: 68.6%
Second compound 10 µM, first compound 0.316 µM
  viability, T/C: 59.5%
Second compound 10 µM, first compound 1 µM
  viability, T/C: 61.2%
Second compound 10 µM, first compound 3.16 µM
  viability, T/C: 67.9%
Second compound 10 µM, first compound 10 µM
  viability, T/C: 88.5%

## Cn1cnc2c(F)c(Nc3ccc(Br)cc3Cl)c(C(=O)NOCCO)cc21 + Cc1nc(NC(=O)N2CCCC2C(N)=O)sc1-c1ccnc(C(C)(C)C(F)(F)F)c1
Second compound 0.0316 µM
  IC50: > 3 µM
Second compound 0.1 µM
  IC50: > 3 µM
Second compound 0.316 µM
  IC50: > 3 µM
Second compound 1 µM
  IC50: 1.18 µM
Second compound 3.16 µM
  IC50: 0.286 µM
Second compound 10 µM
  IC50: 0.0209 µM
Second compound 0.0316 µM, first compound 0.00949 µM
  viability, T/C: 111%
Second compound 0.0316 µM, first compound 0.03 µM
  viability, T/C: 124%
Second compound 0.0316 µM, first compound 0.0949 µM
  viability, T/C: 129%
Second compound 0.0316 µM, first compound 0.3 µM
  viability, T/C: 120%
Second compound 0.0316 µM, first compound 0.949 µM
  viability, T/C: 123%
Second compound 0.0316 µM, first compound 3 µM
  viability, T/C: 107%
Second compound 0.1 µM, first compound 0.00949 µM
  viability, T/C: 113%
Second compound 0.1 µM, first compound 0.03 µM
  viability, T/C: 109%
Second compound 0.1 µM, first compound 0.0949 µM
  viability, T/C: 114%
Second compound 0.1 µM, first compound 0.3 µM
  viability, T/C: 122%
Second compound 0.1 µM, first compound 0.949 µM
  viability, T/C: 114%
Second compound 0.1 µM, first compound 3 µM
  viability, T/C: 90.4%
Second compound 0.316 µM, first compound 0.00949 µM
  viability, T/C: 114%
Second compound 0.316 µM, first compound 0.03 µM
  viability, T/C: 123%
Second compound 0.316 µM, first compound 0.0949 µM
  viability, T/C: 116%
Second compound 0.316 µM, first compound 0.3 µM
  viability, T/C: 123%
Second compound 0.316 µM, first compound 0.949 µM
  viability, T/C: 94.1%
Second compound 0.316 µM, first compound 3 µM
  viability, T/C: 60.4%
Second compound 1 µM, first compound 0.00949 µM
  viability, T/C: 117%
Second compound 1 µM, first compound 0.03 µM
  viability, T/C: 125%
Second compound 1 µM, first compound 0.0949 µM
  viability, T/C: 100%
Second compound 1 µM, first compound 0.3 µM
  viability, T/C: 101%
Second compound 1 µM, first compound 0.949 µM
  viability, T/C: 51.8%
Second compound 1 µM, first compound 3 µM
  viability, T/C: 34.2%
Second compound 3.16 µM, first compound 0.00949 µM
  viability, T/C: 105%
Second compound 3.16 µM, first compound 0.03 µM
  viability, T/C: 87%
Second compound 3.16 µM, first compound 0.0949 µM
  viability, T/C: 61.6%
Second compound 3.16 µM, first compound 0.3 µM
  viability, T/C: 55.7%
Second compound 3.16 µM, first compound 0.949 µM
  viability, T/C: 30%
Second compound 3.16 µM, first compound 3 µM
  viability, T/C: 20.2%
Second compound 10 µM, first compound 0.00949 µM
  viability, T/C: 56.9%
Second compound 10 µM, first compound 0.03 µM
  viability, T/C: 46.5%
Second compound 10 µM, first compound 0.0949 µM
  viability, T/C: 34.3%
Second compound 10 µM, first compound 0.3 µM
  viability, T/C: 20.6%
Second compound 10 µM, first compound 0.949 µM
  viability, T/C: 10.7%
Second compound 10 µM, first compound 3 µM
  viability, T/C: 4.74%
